From patent US20260285850A1, “SUBSTITUTED OXAZOLIDINONES AND IMIDAZOLINONES AS HERBICIDES” (FMC CORPORATION, priority 2023, published 2026)

Legend:
Assay type in all cases: in vivo
[1] = tested on: ryegrass, Italian (italian ryegrass, Lolium multiflorum); test: Test A preemergence soil spray, visual injury rating 0-100; settings: 10 days
Method in brief: (§1)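 Loam-sand pots got test material in surfactant-containing solvent, either as a directed soil spray before emergence or on plants at the one- to two-leaf stage. Visual injury (0-100) was read after ten greenhouse days.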

[2] = tested on: ragweed (common ragweed, Ambrosia artemisiifolia); test: as above; settings: 10 days
Method in brief: as §1

[3] = tested on: oat, wild (wild oat, Avena fatua); test: as above; settings: 10 days
Method in brief: as §1

[4] = tested on: barnyardgrass (Echinochloa crus-galli); test: as above; settings: 10 days
Method in brief: as §1

corn (Zea mays) [5] = test: as above; settings: 10 days
Method in brief: as §1

soybean (Glycine max) [6] = test: as above; settings: 10 days
Method in brief: as §1

[7] = tested on: green foxtail (Setaria viridis); test: as above; settings: 10 days
Method in brief: as §1

[8] = tested on: blackgrass (Alopecurus myosuroides); test: as above; settings: 10 days
Method in brief: as §1

[9] = tested on: wheat (Triticum aestivum); test: as above; settings: 10 days
Method in brief: as §1

[10] = tested on: palmer (palmer amaranth, palmer pigweed, Amaranthus palmeri); test: as above; settings: 10 days
Method in brief: as §1

[11] = tested on: ryegrass, Italian (italian ryegrass, Lolium multiflorum); test: Test A postemergence application, visual injury rating 0-100
Method in brief: as §1

[12] = tested on: ragweed (common ragweed, Ambrosia artemisiifolia); test: as above
Method in brief: as §1

[13] = tested on: oat, wild (wild oat, Avena fatua); test: as above
Method in brief: as §1

[14] = tested on: galium (catchweed bedstraw, Galium aparine); test: as above; settings: Postemergence, 16 g ai/ha, greenhouse 10 days; 0 no effect, 100 complete control
Method in brief: as §1

[15] = tested on: barnyardgrass (Echinochloa crus-galli); test: as above
Method in brief: as §1

corn (Zea mays) [16] = test: as above
Method in brief: as §1

soybean (Glycine max) [17] = test: as above
Method in brief: as §1

kochia (Bassia scoparia) = test: as above
Method in brief: as §1

[18] = tested on: green foxtail (Setaria viridis); test: as above
Method in brief: as §1

[19] = tested on: blackgrass (Alopecurus myosuroides); test: as above
Method in brief: as §1

[20] = tested on: wheat (Triticum aestivum); test: as above
Method in brief: as §1

[21] = tested on: palmer (palmer amaranth, palmer pigweed, Amaranthus palmeri); test: as above
Method in brief: as §1

[22] = tested on: horseweed (Erigeron canadensis); test: as above
Method in brief: as §1

[23] = tested on: sedge, umbrella (small-flower umbrella sedge, Cyperus difformis); test: Test B flooded paddy test, visual plant response rating 0-100; settings: 250 g ai/ha, Flood, applied to paddy water, evaluated after 13 days
Method in brief: (§2)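 Treatment occurs at the 2-leaf stage by adding compound to floodwater standing 3 cm above the soil, a level kept for the whole test. Plants stay in the greenhouse 13 days before visual comparison with controls.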

[24] = tested on: barnyardgrass (Echinochloa crusgalli); test: as above; settings: 250 g ai/ha, Flood, applied to paddy water, evaluated after 13 days
Method in brief: as §2

rice (Oryza sativa) = test: as above; settings: 250 g ai/ha, Flood, applied to paddy water, evaluated after 13 days
Method in brief: as §2

[25] = tested on: ducksalad (Heteranthera limosa); test: as above; settings: 250 g ai/ha, Flood, applied to paddy water, evaluated after 13 days
Method in brief: as §2

[26] = 62 g ai/ha, 0 = no effect, 100 = complete control
[27] = 62 g ai/ha, postemergence, 10 days, 0 = no effect, 100 = complete control
[28] = Postemergence, 16 g ai/ha, greenhouse 10 days, 0 no effect, 100 complete control

With `COC(=O)C1=CCC(NC(=O)C2(C)CN(c3cc(Cl)cc(Cl)c3)C(=O)O2)C1` (stereo not shown) [Compound 148] the “Ryegrass, Italian plant response rating” value ([1]; 16 g ai/ha, 0 to 100 scale) was 0, the “Ryegrass, Italian plant response rating (0-100)” value [1, 26] was 0 and the “Ragweed plant response rating” value ([2]; 16 g ai/ha, 0 to 100 scale) was 0. The “Ragweed plant response rating (0-100)” value [2, 26] was 0, the “Oat, Wild plant response rating” value ([3]; 16 g ai/ha, 0 to 100 scale) was 0 and the “Oat, Wild plant response rating (0-100)” value [3, 26] was 0. For the same compound, the “Barnyardgrass plant response rating” value ([4]; 16 g ai/ha, 0 to 100 scale) was 0, the “Barnyardgrass plant response rating (0-100)” value [4, 26] was 0 and the “Corn plant response rating” value (corn (Zea mays) [5]; 16 g ai/ha, 0 to 100 scale) was 0. For the same compound, the “Corn plant response rating (0-100)” value (corn (Zea mays) [5]; [26]) was 0, the “Soybean plant response rating” value (soybean (Glycine max) [6]; 16 g ai/ha, 0 to 100 scale) was 0 and the “Soybean plant response rating (0-100)” value (soybean (Glycine max) [6]; [26]) was 20. The “Foxtail, Green plant response rating” value ([7]; 16 g ai/ha, 0 to 100 scale) was 0, the “Foxtail, Green plant response rating (0-100)” value [7, 26] was 0 and the “Blackgrass plant response rating” value ([8]; 16 g ai/ha, 0 to 100 scale) was 0. The “Blackgrass plant response rating (0-100)” value [8, 26] was 0, the “Wheat plant response rating” value ([9]; 16 g ai/ha, 0 to 100 scale) was 0 and the “Wheat plant response rating (0-100)” value [9, 26] was 0. For the same compound, the “Pigweed, Palmer plant response rating” value ([10]; 16 g ai/ha, 0 to 100 scale) was 0, the “Pigweed, Palmer plant response rating (0-100)” value [10, 26] was 0 and the “Ryegrass, Italian plant response rating (0-100)” value [11, 27] was 50. The “Ryegrass, Italian plant response rating (0 to 100 scale)” value [11, 28] was 0, the “Ragweed plant response rating (0-100)” value [12, 27] was 0 and the “Ragweed plant response rating (0 to 100 scale)” value [12, 28] was 0. The “Oat, Wild plant response rating (0-100)” value [13, 27] was 10, the “Oat, Wild plant response rating (0 to 100 scale)” value [13, 28] was 0 and the “Galium plant response rating (0 to 100 scale)” value [14] was 40. The “Barnyardgrass plant response rating (0-100)” value [15, 27] was 90, the “Barnyardgrass plant response rating (0 to 100 scale)” value [15, 28] was 0 and the “Corn plant response rating (0-100)” value (corn (Zea mays) [16]; [27]) was 70. For the same compound, the “Corn plant response rating (0 to 100 scale)” value (corn (Zea mays) [16]; [28]) was 0, the “Soybean plant response rating (0-100)” value (soybean (Glycine max) [17]; [27]) was 50 and the “Soybean plant response rating (0 to 100 scale)” value (soybean (Glycine max) [17]; [28]) was 0. The “Kochia plant response rating (0-100)” value (kochia (Bassia scoparia); [27]) was 80, the “Kochia plant response rating (0 to 100 scale)” value (kochia (Bassia scoparia); [28]) was 0 and the “Foxtail, Green plant response rating (0-100)” value [18, 27] was 30. For the same compound, the “Foxtail, Green plant response rating (0 to 100 scale)” value [18, 28] was 0, the “Blackgrass plant response rating (0-100)” value [19, 27] was 70 and the “Blackgrass plant response rating (0 to 100 scale)” value [19, 28] was 0. The “Wheat plant response rating (0-100)” value [20, 27] was 30, the “Wheat plant response rating (0 to 100 scale)” value [20, 28] was 10 and the “Pigweed, Palmer plant response rating (0-100)” value [21, 27] was 80. For the same compound, the “Pigweed, Palmer plant response rating (0 to 100 scale)” value [21, 28] was 10, the “Horseweed plant response rating (0-100)” value [22, 27] was 0 and the “Horseweed plant response rating (0 to 100 scale)” value [22, 28] was 0. For the same compound, the “Plant response rating, Sedge, Umbrella (0 to 100 scale, 0 is no effect and 100 is complete control)” value [23] was 0, the “Plant response rating, Barnyardgrass (0 to 100 scale, 0 is no effect and 100 is complete control)” value [24] was 0 and the “Plant response rating, Rice (0 to 100 scale, 0 is no effect and 100 is complete control)” value (rice (Oryza sativa)) was 0. The “Plant response rating, Ducksalad (0 to 100 scale, 0 is no effect and 100 is complete control)” value [25] was 0.
